In the METLIN SMRT retention time set (Domingo-Almenara et al. 2019) one finds RP-LC retention time data, which are given here for 79 compounds.

This data set is described as follows: gradient 5% acetonitrile 3 min, to 50% in 2 min, to 85% in 15 min, held 3 min, 100 µL/min. The note with it: column: Zorbax Extend-C18 2.1 x 50 mm; eluents: water / acetonitrile, 0.1% formic acid. The method, boiled down: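 Retention times come from adduct peaks that were picked computationally and then checked by hand. The standards, pure and pooled in mixtures of ~100 molecules, were run on a Zorbax Extend-C18 column (2.1 × 50 mm, 1.8 μm) at 100 μL/min with water and acetonitrile, each with 0.1% formic acid. Detection was by quadrupole time-of-flight mass spectrometry in positive and negative ionization mode, with a dead volume of 40 μL and a dwell volume of 900 μL.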
`C[C@H]1CN(C(=O)Nc2ccccc2Cl)C[C@@H]1c1nc(-c2ccncc2)no1` yielded an RP-LC retention time of 854 s.

Take `CN1CC[C@@H](c2ccc(F)cc2)[C@H](COc2ccc3c(c2)OCO3)C1`: the RP-LC retention time worked out at 766 s.

As for `Cc1nc2c(sc3nc(-c4ccccc4)ccc32)c(=O)n1CC(=O)NCc1cccs1`, the RP-LC retention time was 750 s.

The compound `Cc1oc(C2CCN(S(=O)(=O)c3ccc(Cl)cc3)CC2)nc1C(=O)N(C)C` registered an RP-LC retention time of 863 s.

Compound `COc1nn(C)cc1C(=O)NCc1n[nH]c(=O)c2ccccc12` showed an RP-LC retention time of 573 s.

`O=c1c2cc(-c3ccc(Cl)cc3)nn2ccn1Cc1ccc(F)cc1` returned an RP-LC retention time of 1120 s.

As to `c1cc(CN2CCCCC2)ccc1CC1CCNCC1`, the RP-LC retention time is 528 s.

In turn, `O=S(=O)(c1cc(-c2cc(C(F)(F)F)on2)cs1)N1CCN(C2CCCCC2)CC1` displayed an RP-LC retention time of 775 s.

The compound `Cn1nnnc1SCC(=O)NCCOc1ccc(-c2ccc(F)cc2)nn1` displayed an RP-LC retention time of 654 s.

Regarding `Cc1c(CCC(=O)NCc2cccnc2)c(=O)n2nc(-c3ccc(Cl)cc3)nc2n1C`, the RP-LC retention time was found to be 632 s.

Regarding `CCOC(=O)c1nc(N(CC)c2cc(C)ccc2C)c2ccccc2n1`, the RP-LC retention time came to 1130 s.

`COc1ccc(F)cc1S(=O)(=O)N1CCC2(CC1)c1nccn1CCN2C` displayed an RP-LC retention time of 564 s.

In turn, `O=C(OCc1cc(-c2cccs2)on1)c1ccc(Cn2ccnc2)cc1` returned an RP-LC retention time of 600 s.

`Cc1ccc(NC(=O)C2CCN(S(=O)(=O)c3cc(-c4noc(C5CC5)n4)cs3)CC2)cc1` yielded an RP-LC retention time of 1050 s.

For the compound `Cn1cc(-c2cc3n(n2)CCC(=O)N3CC(=O)N2CCC(N3CCCCC3)CC2)c2ccccc21`, the RP-LC retention time worked out at 623 s.

The compound `CCn1c(=O)c2ccccc2n(Cc2nc(-c3ccc(F)cc3)no2)c1=O` came in with an RP-LC retention time of 1010 s.

In turn, `CC(C)Cn1nc(CNC(=O)c2ccco2)c2ccccc21` had an RP-LC retention time of 852 s.

As to `COc1cc(C(=O)NCCc2csc(-c3ccc(Cl)cc3)n2)c([N+](=O)[O-])cc1OC`, the RP-LC retention time is 895 s.

`CN(CC1(C)CCOCC1)C(=O)c1ccc2cc[nH]c2c1`: the RP-LC retention time is 696 s.

The compound `CCOc1ccc(-c2cc3c(=O)n(CC(O)c4ccc(C(C)C)cc4)ccn3n2)cc1` (centres undefined) returned an RP-LC retention time of 1120 s.

Compound `CC(C)CNc1nc(-c2ccc([N+](=O)[O-])cc2)nc2ccccc12` had an RP-LC retention time of 821 s.

Regarding `CCOC(=O)c1c(C)[nH]c(CCC(=O)Nc2ccc(F)cc2F)c1C`, the RP-LC retention time turned out to be 905 s.

Regarding `O=C(c1noc2c1CCCCC2)N1CCN(c2ccccn2)CC1`, the RP-LC retention time turned out to be 632 s.

Consider `CC(C(=O)NCCSc1nncn1C)n1nnc2ccccc2c1=O` (centres undefined), for which the RP-LC retention time was 578 s.

Compound `CCc1noc(NC(C)=O)c1-c1ccc(OC)c(S(=O)(=O)Nc2ccc(C)c(Cl)c2)c1` displayed an RP-LC retention time of 1300 s.

In turn, `COc1cccc(-c2noc(COC(=O)C3=CN(C)S(=O)(=O)N=C3C)n2)c1` came in with an RP-LC retention time of 926 s.

On to `CCOC(=O)c1nc(N2CCN(c3ccccc3)CC2)c2ccccc2n1`, for which the RP-LC retention time was determined as 893 s.

`Cc1cc(C)cc(-c2nc(-c3cccc(-c4ccn[nH]4)c3)no2)c1` showed an RP-LC retention time of 999 s.

In turn, `CCOc1ccc(-n2nnc(C(=O)OC)c2C(=O)OC)cc1` came in with an RP-LC retention time of 882 s.

With `COc1ccc(NC(=O)NC2CCN(c3ccc(C)c(C)c3)C2=O)cc1F` (centres undefined), the RP-LC retention time turned out to be 800 s.

In the case of `O=C(O)c1cccnc1NCc1cccc(F)c1`, the RP-LC retention time turned out to be 655 s.

In turn, `COc1ccccc1-c1ccc(SCC(=O)Nc2ccc3c(c2)OCCO3)nn1` had an RP-LC retention time of 792 s.

The compound `O=C(Cc1csc(-c2ccccc2)n1)Nc1nc(-c2cccc(Br)c2)cs1` registered an RP-LC retention time of 1270 s.

In turn, `CCc1nn2c(CNC(=O)c3ccc(OC)c(F)c3)c(-c3ccccc3)nc2s1` gave an RP-LC retention time of 912 s.

Turning to `O=C(C1CCN(S(=O)(=O)c2ccc(-c3noc(/C=C/c4cccs4)n3)cc2)CC1)N1CCCC1`, the RP-LC retention time is 1050 s.

Compound `CN(c1nccn2c(=O)n(CC(=O)Nc3ccc4c(c3)OCO4)nc12)C1CCCCC1` gave an RP-LC retention time of 716 s.

`CCN1C(=O)CN(C(=O)c2ccco2)CC12CCOCC2` displayed an RP-LC retention time of 610 s.

On to `CC(C)c1ccc2c(c1)-c1ccccc1S(=O)(=O)N2CC(=O)NCc1ccncc1`, for which the RP-LC retention time was 699 s.

Compound `Cc1sc(NC(=O)CC(C)C)nc1-c1ccc2c(c1)N(C)C(=O)CO2` gave an RP-LC retention time of 910 s.

`Cc1ccc(C)c(NC(=O)Cn2c(=O)n(-c3ccc(F)cc3)c(=O)c3c2cc(C)n3C)c1` had an RP-LC retention time of 931 s.

`O=C(C1CCCN(S(=O)(=O)N2CCCCC2)C1)N1CCN(Cc2ccc3c(c2)OCO3)CC1` (centres undefined) returned an RP-LC retention time of 679 s.

For the compound `CCc1nc(-c2csc(S(=O)(=O)N3CCC(C(=O)NC(C)C)CC3)c2)no1`, the RP-LC retention time was 812 s.

Compound `CCOc1ccc(NC(=O)Cn2nc3c(Oc4ccccc4C)nccn3c2=O)cc1` gave an RP-LC retention time of 870 s.

`COC(=O)C1C(=O)C2=C(CC1C)NC(C)=C(C(=O)OC(C)C)C2c1ccccc1OC` (centres undefined) showed an RP-LC retention time of 908 s.

`CS(=O)(=O)N1CCC(OC2CCN(C(=O)c3cccnc3)CC2)CC1` yielded an RP-LC retention time of 583 s.

`Cc1cc(C)n(Cc2ccc(C(=O)N3CCC(c4noc(-c5cccnc5)n4)C3)o2)n1` (centres undefined) gave an RP-LC retention time of 696 s.

For the compound `CCCCNC(=O)CCCn1c(=O)c2cccn2c2ccccc21`, the RP-LC retention time was determined as 780 s.

For the compound `O=C(COc1ccccc1)N1CC2CN(S(=O)(=O)c3ccc(F)cc3)CC(C1)O2`, the RP-LC retention time stood at 846 s.

`O=C(Nc1ccc(OC(F)(F)F)cc1)C1CCCN(C(=O)c2cc(-c3ccncc3)n[nH]2)C1` (centres undefined) registered an RP-LC retention time of 692 s.

Compound `CCCC(=O)N1CCc2c([nH]c3ccccc23)C1c1ccccc1` (centres undefined) displayed an RP-LC retention time of 1080 s.

The compound `O=C(c1ccco1)N1CCC2(CC1)NCCc1c2[nH]c2ccccc12` had an RP-LC retention time of 631 s.

With `Cc1ccc(CNS(=O)(=O)c2cc3c(s2)CCN(C(=O)C2CCC2)C3)cc1`, the RP-LC retention time was 943 s.

`COC(=O)c1c(C)[nH]c(C(=O)N2CCC(CC(=O)NC3CCCCC3)CC2)c1C` had an RP-LC retention time of 730 s.

Compound `CCn1cc(S(=O)(=O)N2CCC(CCOc3ccccc3F)C2)cn1` (centres undefined) displayed an RP-LC retention time of 948 s.

Turning to `CCn1cnc(S(=O)(=O)N2CCC(C(=O)NCc3ccc(Cl)cc3)CC2)c1`, the RP-LC retention time stood at 729 s.

Consider `CCc1nc2cc(-c3noc(-c4ccco4)n3)ccc2o1`, for which the RP-LC retention time was 968 s.

In turn, `COc1cccc(N2CCN(C(=O)C3CCCN(c4ncnc5c4nc4n5CCCCC4)C3)CC2)c1` (centres undefined) showed an RP-LC retention time of 627 s.

The compound `O=C1C=C(Nc2cccnc2)c2ccccc2C1=O` registered an RP-LC retention time of 594 s.

`Cc1ccccc1Nc1c(-c2c(F)cccc2Cl)nc2ccc(Cl)cn12` displayed an RP-LC retention time of 984 s.

In turn, `CCN1C(=O)C(CC(=O)N2CCCC2)Sc2ncccc21` (centres undefined) displayed an RP-LC retention time of 654 s.

Consider `CCc1cc(=O)n(CC(=O)Nc2cccc(C(C)C)c2)c(N2CCOCC2)n1`, for which the RP-LC retention time came out at 829 s.

Turning to `CC(CNC(=O)C1CCN(C(=O)C2Sc3ccccc3NC2=O)CC1)c1ccccc1` (centres undefined), the RP-LC retention time is 776 s.

For the compound `O=c1n(Cc2cc(F)cc(F)c2)nc2c(S(=O)(=O)N3CCCC3)cccn12`, the RP-LC retention time came out at 861 s.

`CS(=O)(=O)c1ccc(-c2cnc(N)c(C(=O)Nc3ccccc3)n2)cc1` gave an RP-LC retention time of 937 s.

For `NC(=O)c1cc(N2CC2)c([N+](=O)[O-])cc1[N+](=O)[O-]`, the RP-LC retention time was 650 s.

In turn, `CCNC(=O)c1sc2nc(-c3ccc(F)cc3)c(NCCOC)n2c1C` had an RP-LC retention time of 777 s.

Turning to `Nc1ccc2ncnc(N3CCCCC3)c2c1`, the RP-LC retention time stood at 593 s.

The compound `COc1cccc(-c2ccc(=O)n(CCc3nc(-c4cccc(OC)c4OC)no3)n2)c1` displayed an RP-LC retention time of 921 s.

In turn, `CN(C)S(=O)(=O)N1CCc2nc(NC(=O)c3cccs3)sc2C1` registered an RP-LC retention time of 729 s.

Regarding `Cc1cccn2c(Nc3ccc4c(c3)OCCO4)c(-c3ccc(N4CCOCC4)cc3)nc12`, the RP-LC retention time stood at 683 s.

For `FC(F)(F)Oc1ccc(CN2CCN(c3cnn4cnnc4c3)CC2)cc1`, the RP-LC retention time was 611 s.

On to `COc1ccc(OC)c(NC(=O)C2CCN(S(=O)(=O)c3cn(C(C)C)cn3)CC2)c1`, for which the RP-LC retention time stood at 778 s.

In turn, `CCOc1ccc(CC(=O)NC2CCN(c3cc(-c4cccs4)[nH]n3)C2)cc1OCC` (centres undefined) yielded an RP-LC retention time of 727 s.

With `Cc1nc(-c2cc(S(=O)(=O)NCCCN3CCCC(C)C3)c(C)s2)sc1C` (centres undefined), the RP-LC retention time turned out to be 704 s.

Turning to `Cc1ccc(CNC(=O)C2(C)CCCN(C(=O)Nc3ccc(C)cc3Cl)C2)cc1` (centres undefined), the RP-LC retention time worked out at 1080 s.

The compound `CCC(=O)N1N=C(c2cccc(NS(=O)(=O)CC)c2)CC1c1cccc([N+](=O)[O-])c1` (centres undefined) displayed an RP-LC retention time of 651 s.

For the compound `CC1CN(C(=O)N2CCC(C(=O)N3CCN(c4ccccn4)CC3)CC2)c2cc(Cl)ccc2O1` (centres undefined), the RP-LC retention time worked out at 672 s.

As to `O=C(O)c1cc2c([nH]c1=O)CCCC2O` (centres undefined), the RP-LC retention time stood at 516 s.

The compound `COc1ccc2c(c1)C1(CCN(S(=O)(=O)c3cccs3)C1)C(=O)N2` (centres undefined) displayed an RP-LC retention time of 790 s.
